In ChEMBL document CHEMBL3865812, “Selective killing of cancer cells with triterpenoic acid amides - The substantial role of an aromatic moiety alignment” (Eur J Med Chem, 2016):
The source made the active and inactive calls. No cut-off for these calls is given here.

Key:
[1] = Cytotoxicity against mouse NIH/3T3 cells measured after 96 hrs by SRB assay; assay type: toxicity, NIH3T3
[2] = Cell cycle arrest in human A2780 cells assessed as decrease in accumulation of cells at S-phase at 1.5 uM measured after 48 hrs by propidium iodide staining based FACS analysis; assay type: functional
[3] = Cell cycle arrest in human A2780 cells assessed as accumulation at S-phase at 1.5 uM measured after 24 hrs by propidium iodide staining based FACS analysis; assay type: functional
[4] = Cytotoxicity against human 518A2 cells measured after 96 hrs by SRB assay; assay type: functional, cell-based; details: 518A2, 96 h
[5] = Cytotoxicity against human HT-29 cells measured after 96 hrs by SRB assay; assay type: functional, cell-based; details: HT-29, 96 h
A2780 [6] = experiment: Induction of apoptosis in human A2780 cells assessed as secondary necrotic cells at 6 uM measured after 2 days by Annexin V/FITC/propidium iodide staining-based FACS analysis; assay type: functional, cell-based
[7] = Cytotoxicity against human MCF7 cells measured after 96 hrs by SRB assay; assay type: functional, cell-based; details: MCF7, 96 h
[8] = Cell cycle arrest in human A2780 cells assessed as loss of G2 peak at 1.5 uM measured after 24 hrs by propidium iodide staining based FACS analysis; assay type: functional
[9] = Cell cycle arrest in human A2780 cells assessed as sub-G1 peak appearance at 1.5 uM measured after 48 hrs by propidium iodide staining based FACS analysis; assay type: functional
[10] = Cytotoxicity against human 8505C cells measured after 96 hrs by SRB assay; assay type: functional, cell-based
A2780 [11] = experiment: Induction of apoptosis in human A2780 cells assessed as increase in secondary necrotic cells at 1.5 uM measured after 48 hrs by Annexin V/FITC/propidium iodide staining-based FACS analysis relative to control; assay type: functional
A2780 [12] = experiment: Induction of apoptosis in human A2780 cells assessed as increase in apoptotic cells at 6 uM measured after 2 days by Annexin V/FITC/propidium iodide staining-based FACS analysis; assay type: functional, cell-based
[13] = Cytotoxicity against human A549 cells measured after 96 hrs by SRB assay; assay type: functional, cell-based; details: A549, 96 h
[14] = Cytotoxicity against human A2780 cells measured after 96 hrs by SRB assay; assay type: functional, cell-based; details: A2780, 96 h
[15] = Cell cycle arrest in human A2780 cells assessed as decrease in G1 peak at 1.5 uM measured after 24 hrs by propidium iodide staining based FACS analysis; assay type: functional
A2780 [16] = experiment: Induction of apoptosis in human A2780 cells assessed as apoptotic cells at 1.5 uM measured after 48 hrs by Annexin V/FITC/propidium iodide staining-based FACS analysis relative to control; assay type: functional
[17] = Cell cycle arrest in human A2780 cells assessed as decrease in accumulation of cells at S-phase at 6 uM measured after 48 hrs by propidium iodide staining based FACS analysis; assay type: functional
[18] = Cell cycle arrest in human A2780 cells assessed as decrease in G1 peak at 6 uM measured after 24 hrs by propidium iodide staining based FACS analysis; assay type: functional
[19] = Cell cycle arrest in human A2780 cells assessed as loss of G2 peak at 6 uM measured after 24 hrs by propidium iodide staining based FACS analysis; assay type: functional
A2780 [20] = experiment: Induction of apoptosis in human A2780 cells assessed as secondary necrotic cells at 6 uM measured after 40 hrs by acridine orange/propidium iodide staining-based fluorescence microscopic analysis; assay type: functional, cell-based
A2780 [21] = experiment: Induction of apoptosis in human A2780 cells assessed as induction of membrane blebbing at 6 uM measured after 40 hrs by acridine orange/propidium iodide staining-based fluorescence microscopic analysis; assay type: functional, cell-based
[22] = Cell cycle arrest in human A2780 cells assessed as accumulation at S-phase at 6 uM measured after 24 hrs by propidium iodide staining based FACS analysis; assay type: functional
[23] = Cell cycle arrest in human A2780 cells assessed as sub-G1 peak appearance at 6 uM measured after 48 hrs by propidium iodide staining based FACS analysis; assay type: functional
A2780 [24] = experiment: Induction of apoptosis in human A2780 cells assessed as increase in apoptotic cells at 1.5 uM measured after 24 hrs by Annexin V/FITC/propidium iodide staining-based FACS analysis relative to control; assay type: functional
A2780 [25] = experiment: Selectivity index, ratio of EC50 for mouse NIH/3T3 cells to EC50 for human A2780 cells; assay type: functional

Row | SMILES | EC50 at 96 h [1] [nM] | Activity [2] | Activity [3] | EC50 [4] [nM] | EC50 [5] [nM] | Activity (A2780 [6]) | EC50 [7] [nM] | Activity [8] | Activity [9] | EC50 [10] [nM] | Activity (A2780 [11]) | Activity (A2780 [12]) | EC50 [13] [nM] | EC50 [14] [nM] | Activity [15] | Activity (A2780 [16]) | also measured
1 | CC(=O)OC[C@@]1(C)[C@@H]2CC[C@]3(C)[C@H](CC=C4[C@@H]5[C@@H](C)[C@H](C)CC[C@]5(C(=O)Nc5cccc6ncccc56)CC[C@]43C)[C@@]2(C)C[C@@H](OC(C)=O)[C@@H]1OC(C)=O | 10200 | Active | Active | 500 | 800 | Active | 1400 | Active | Active | 900 | Active | Active | 1100 | 400 | Active | Active | –
2 | CC(=O)O[C@H]1C[C@]2(C)[C@H]3CC=C4[C@@H]5CC(C)(C)CC[C@]5(C(=O)Nc5cncc6ccccc56)CC[C@@]4(C)[C@]3(C)CC[C@H]2C(C)(C)[C@H]1OC(C)=O | > 60000 | – | – | 1600 | 2300 | Active | 2400 | – | – | 2600 | – | Active | 3300 | 1200 | – | – | Activity [17]: Active; Activity [18]: Active; Activity [19]: Active; Activity (A2780 [20]): Active; Activity (A2780 [21]): Active; Activity [22]: Active; Activity [23]: Active
3 | CC(=O)OC[C@@]1(C)[C@@H]2CC[C@]3(C)[C@H](CC=C4[C@@H]5[C@@H](C)[C@H](C)CC[C@]5(C(=O)Nc5cncc6ccccc56)CC[C@]43C)[C@@]2(C)C[C@@H](OC(C)=O)[C@@H]1OC(C)=O | 3230 | Active | Active | 190 | 220 | Active | 540 | Active | Active | – | 45% | Active | 290 | 80 | Active | 10% | Activity (A2780 [24]): 20%; Ratio EC50 (A2780 [25]): 40
